# Measurements published in patent US7495127B2, “Potassium channel opener” (Mitsubishi Tanabe Pharma Corporation, priority 2001, dated 2009).
# Assays:
# native HEK293 = test: Outward currents in native HEK293 under whole-cell voltage clamp; assay type: cell-based, human; conditions: 1 to 10 μm; pCa 6.5
# Description: (§1) Effects of test compounds on BK channel currents were examined in single HEK293 cell expressing BK(α+β1) channels (hereinafter referred to as HEKBKαβ1) under whole-cell voltage clamp. The Ca^2+ concentration in the pipette solution was fixed at pCa 6.5 using a Ca^2+-EGTA buffer. Depolarization from −60 mV to +30 mV induced outward currents in both native HEK293 and HEKBKαβ1, but the current density was much higher in the latter (the current density at the peak: 11.0±1.8 and 95.2±20.9 pA/pF, n=5 and 6, respectively, p<0.05). […] This enhancement of outward current by pimaric acid could be removed completely by washout. Effects of other test compounds were also examined in this manner. The peak amplitude of outward current at +40 mV in the presence of 1, 3, and 10 μm resin acids was measured relative to the value taken just before the application (FIG. 6B).
# BKαβ1 [1] = molecular target: T1, BKαβ1 (Rattus norvegicus, UniProt Q62976); test: BK channel currents in single HEK293 cell expressing BK(α+β1) channels (HEKBKαβ1) under whole-cell voltage clamp; assay type: cell-based; conditions: 1 to 10 μm; pCa 6.5
# T1 construct: expressed in transfected cells; host or cells: HEK293
# Description: as §1
# BKαβ1 [2] = molecular target: T1, BKαβ1; test: Concentration-dependent block of macroscopic currents by ChTX in HEKBKαβ1, in the absence and presence of pimaric acid; assay type: cell-based
# Description: The outward currents elicited by depolarization from −60 mV in 10 mV steps were enhanced at potentials positive to −20 mV. The current at +40 mV was increased from 1214±153 to 2527±448 pA (n=5, p<0.05). […] The currents at +40 mV in the presence of 10 μm pimaric acid was reduced from 2527±448 pA to 499±90 pA (p<0.01 versus before the application of and in the presence of 10 μm pimaric acid). […] The normalized data were well fitted with the Hill equation modified for the concentration-response relationship. […] The relationship in the presence of 10 μm pimaric acid was almost identical with that in its absence.
# BKα [3] = molecular target: T2, BKα (Rattus norvegicus, UniProt Q62976); test: Single channel current recording by inside-out patch clamp, BKα expressed on HEK293 cells; assay type: cell-based
# T2 construct: expressed in transfected cells; host or cells: HEK293
# Description: (§2) Calcium-activated potassium channel (hereinafter abbreviated as “BK channel” in Examples) functions with two kinds of proteins α (BKα) and β (BKβ) subunits being arranged in tetramers. BKα consists a main part of a channel and BKβ is an activity regulating factor. […] In accordance with a method of Ahring, et al. (Ahring P. K., et al., FEBS Lett., 415, pp. 67-70, 1997), cDNAs of BKα and BKβ1 genes derived from rat uterus smooth muscle (GenBank accession numbers; U55995 and AF020712) were introduced into HEK293 cells by using calcium phosphate coprecipitation transfection techniques, to constantly overexpress BKα or BKαβ.
# (a) Single Channel Current Recording by Inside-Out Patch Clamp Technique
# By using Inside-out patch clamp technique, fragments of cell membrane containing the channels were isolated, and by artificially controlling an environment of inside of the cell membrane, opening or closing of a single channel can be directly observed. This is a fully established method not only for functional analysis of the channel, but also for testing quantitative effects of the channel agonists (Hamil, O. P., et al., Pflgers Archiv., 391, pp. 85-100, 1981).
# Under this condition, action and effect of pimaric acid for BKα was measured.
# In Current Amplitude, 0 pA means a closing state. […] In FIG. 3, a relation between a concentration of pimaric acid and an effect of BK channel activation is shown under this condition. By addition of pimaric acid at concentration of 3 μm or more, a significant increase in channel opening probability was confirmed.
# BKαβ1 [4] = molecular target: T1, BKαβ1; test: Whole-cell current recording (whole-cell patch clamp), HEK293 constantly expressing rat BKα+β1; assay type: cell-based; conditions: pCa 6.5, depolarization −60 mV to +10 mV
# Procedure: According to the whole-cell patch clamp technique, whole-cell currents were recorded on HEK293 cell, in which rat BKα+β1 subunits were constantly expressed. All the experiments were carried out at 22-24° C.
# Pipette solution (mM) 140 KCl, 4 MgCl2, 5 ATP, 10 HEPES, 5 EGTA (the pCa was adjusted to 6.5 by adding a suitable amount of CaCl2 to stabilize the pCa). The pH was adjusted to 7.2 with KOH.
# Extracellular fluid (mM) 137 NaCl, 5.9 KCl, 2.2 CaCl2, 1.2 MgCl2, 14 Glucose, 10 HEPES. The pH was adjusted to 7.4 with NaOH.
# (§3) Since the test compounds were highly aliphatic, and hard to dissolve in water, they were dissolved by DMSO and preserved as 30 mM stock solutions. On administration, final concentration in the DMSO solutions were made at most 0.03%. Incidentally, DMSO was confirmed not to have any influence on BK currents, when its concentration is 0.3% or less.
# The whole-cell currents were recorded with the cells in which BK(α+β1) channels were constantly expressed, by the whole-cell patch clamp technique. The Ca^2+ concentration in the intracellular fluid was fixed at pCa 6.5 with Ca^2+-EGTA buffer. The pulse depolarizing from the resting potential −60 mV to +10 mV, was added for 150 mseconds, and the elicited currents were observed. By the depolarizing stimulus, moderately activated outward currents were observed, which are characteristic of BK(α+β1) channel (control in FIG. 4B). After establishing the whole cell, the recording was started at a point where stable current measurements were obtained for 20 minutes. […] After that, by washout, the current went back almost to the level prior to application of the test compounds (FIG. 4A). As a result of a statistical analysis based on the recordings of the 4 examples, the currents were activated by 1.90±0.21 times at concentration of 100 nM, 2.54±0.14 times at 300 nM, and 6.37±0.91 times at 1 μm, by this activating effect.
# BKα [5] = molecular target: T2, BKα; test: Membrane current recording by whole cell voltage-clamp, HEK293 cell expressing BKα channels; assay type: cell-based
# Description: as §2
# (b) Membrane Current Recording by Whole Cell Voltage-Clamp Technique
# Membrane current of the whole cell by opening of BKα channels was recorded by Whole cell voltage-clamp technique. This technique is frequently employed to analyze the functions shown by the ion channels expressed in numbers on a cell membrane as a whole, and is a well established technique (Hamil, O. P. the above mentioned reference).
# BKαβ1 [6] = molecular target: T1, BKαβ1; test: Single-channel recording (inside-out patch clamp), HEK293 constantly expressing rat BKα+β1; assay type: cell-based; conditions: pCa 7.0, +40 mV
# Procedure: According to the inside-out patch clamp technique, a single channel current was recorded on HEK293, in which rat BKα+β1 subunits were constantly expressed. All the experiments were carried out at 22-24° C.
# Intracellular fluid (mM) 140 KCl, 1.2 MgCl2, 14 Glucose, 5 EGTA (the pCa was adjusted to 7 by adding a suitable amount of CaCl2 to stabilize the pCa). The pH was adjusted to 7.2 with NaOH.
# Extracellular fluid (mM) 140 KCl, 4 MgCl2, 5 ATP, 10 HEPES, 0.05 EGTA. The pH was adjusted to 7.2 with KOH.
# as §3
# In order to further confirm this point, a single channel current recording was carried out. The single channel current was recorded with respect to the cells in which BK(α+β1) channels were constantly expressed, by the inside-out patch clamp technique. The intracellular fluid (the fluid contacting the inner side of the cell membrane) was fixed at pCa 7.0. […] From these histograms, channel opening probability was calculated to show relation between the concentration and effect as shown in FIG. 5C.
# T1 sequence (Q62976 whole entry): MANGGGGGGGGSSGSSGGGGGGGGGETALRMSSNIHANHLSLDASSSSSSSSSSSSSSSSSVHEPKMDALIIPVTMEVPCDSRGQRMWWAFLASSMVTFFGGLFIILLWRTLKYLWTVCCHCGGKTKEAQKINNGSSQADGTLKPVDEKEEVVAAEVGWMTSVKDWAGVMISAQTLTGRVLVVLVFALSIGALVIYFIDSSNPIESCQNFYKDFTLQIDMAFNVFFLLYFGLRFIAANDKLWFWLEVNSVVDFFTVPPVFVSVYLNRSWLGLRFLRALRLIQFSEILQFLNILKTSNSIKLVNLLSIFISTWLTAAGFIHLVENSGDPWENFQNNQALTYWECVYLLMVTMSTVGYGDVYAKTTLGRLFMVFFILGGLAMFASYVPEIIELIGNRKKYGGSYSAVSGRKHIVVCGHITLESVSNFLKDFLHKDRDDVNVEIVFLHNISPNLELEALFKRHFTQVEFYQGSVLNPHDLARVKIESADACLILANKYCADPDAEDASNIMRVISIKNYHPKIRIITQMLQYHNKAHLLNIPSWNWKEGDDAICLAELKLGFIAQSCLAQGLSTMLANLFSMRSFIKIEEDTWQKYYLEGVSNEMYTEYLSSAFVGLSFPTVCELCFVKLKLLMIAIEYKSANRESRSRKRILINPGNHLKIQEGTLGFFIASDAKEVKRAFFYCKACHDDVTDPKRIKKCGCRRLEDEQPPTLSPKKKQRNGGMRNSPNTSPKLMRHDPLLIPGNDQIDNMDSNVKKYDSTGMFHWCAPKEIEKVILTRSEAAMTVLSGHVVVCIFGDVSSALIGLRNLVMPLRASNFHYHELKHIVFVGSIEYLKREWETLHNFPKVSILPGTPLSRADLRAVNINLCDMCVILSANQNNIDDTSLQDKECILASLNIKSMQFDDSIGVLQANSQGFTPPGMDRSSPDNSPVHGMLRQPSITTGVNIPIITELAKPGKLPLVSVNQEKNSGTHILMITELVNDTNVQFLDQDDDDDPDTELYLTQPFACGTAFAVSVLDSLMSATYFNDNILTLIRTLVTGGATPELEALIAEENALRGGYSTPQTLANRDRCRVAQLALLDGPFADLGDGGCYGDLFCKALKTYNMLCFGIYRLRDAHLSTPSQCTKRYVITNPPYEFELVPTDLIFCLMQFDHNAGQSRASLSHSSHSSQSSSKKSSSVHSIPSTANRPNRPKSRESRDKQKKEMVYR
# T1 sequence (P97678 whole entry partner): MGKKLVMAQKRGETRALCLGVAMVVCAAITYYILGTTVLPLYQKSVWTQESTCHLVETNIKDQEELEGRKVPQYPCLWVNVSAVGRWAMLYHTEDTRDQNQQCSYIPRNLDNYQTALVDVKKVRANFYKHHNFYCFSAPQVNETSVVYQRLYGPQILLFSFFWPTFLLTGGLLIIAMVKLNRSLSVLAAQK
# T2 sequence (Q62976 whole entry): as the sequence (Q62976 whole entry) above
compound,measurement,setting,value
C=C[C@@]1(C)C=C2CC[C@@H]3[C@](C)(CCC[C@@]3(C)C(=O)O)[C@H]2CC1 [pimaric acid],outward currents in native HEK293,native HEK293,did not change
same,outward currents in HEKBKαβ1,BKαβ1 [1],increased outward currents in a dose-dependent fashion
same,effect on the binding of ChTX to BK channels,BKαβ1 [2]; 10 μm pimaric acid,does not affect the binding of ChTX to BK channels
same,outward current at +40 mV,"BKαβ1 [2]; 10 μm pimaric acid, control 1214±153 pA",2527±448 pA
same,increase of opening probability,"BKα [3]; 1 μM, Ca of inner side 0.3 μm, patch membrane potential +40 mV",increased by three times
same,time of an opening state (histograms of 30 s current recordings),"BKα [3]; 1 μm or 10 μm, +40 mV, Ca 0.1 μM",increased time of an opening state
same,concentration giving a significant increase in channel opening probability,"BKα [3]; +40 mV, Ca 0.1 μM",≥ 3 μm
same,channel activity (BKα single channel),"BKα [3]; added to solution of inner side of cell membrane at 10 μm or less, +40 mV, Ca 0.1 μM",significantly increased
same,BK channel opening effect relative to NS-1619,BKα [3]; comparison with known compound,≥ 10 times
same,BK channel opening effect relative to maxikdiol described in the reference,BKα [3]; comparison with literature value,at least three times or more
same,activation of whole-cell current,BKαβ1 [4]; 1 μm,1.92±0.24 times
same,increase of BKα current,"BKα [5]; 1 μm added to extracellular fluid, +60 mV",about 50%
"CC[N+](CC)(CC)CC [tetraethylammonium, reference compound]",inhibition of the action of pimaric acid on BKα current,BKα [5]; 1 mM tetraethylammonium,completely inhibited
CC(C)c1c(Cl)cc2c(c1Cl)CC[C@H]1[C@](C)(C(=O)O)CCC[C@]21C [dichlorodehydroabietic acid],concentration at which channel activation was observed,BKαβ1 [6]; applied to inner side of cell membrane,≥ 100 nM
same,relation between concentration and channel opening probability,BKαβ1 [6],concentration-dependent
same,activation of whole-cell current,BKαβ1 [4]; 100 nM,1.90±0.21 times
same,activation of whole-cell current,BKαβ1 [4]; 300 nM,2.54±0.14 times
same,activation of whole-cell current,BKαβ1 [4]; 1 μm,6.37±0.91 times
charybdotoxin [ChTX],current amplitude at +40 mV after ChTX,"BKαβ1 [2]; 100 nM ChTX in the absence of pimaric acid, before 1233±226 pA",205±46 pA
same,outward current at +40 mV after ChTX,"BKαβ1 [2]; 100 nM ChTX in the presence of 10 μm pimaric acid, before 2527±448 pA",499±90 pA
same,C (constant; native K+ currents insensitive to ChTX),BKαβ1 [2]; absence of pimaric acid,0.077±0.0226
same,nH (Hill coefficient),BKαβ1 [2]; absence of pimaric acid,0.847±0.034
same,C (constant; native K+ currents insensitive to ChTX),BKαβ1 [2]; presence of 10 μm pimaric acid,0.0965±0.0388
same,nH (Hill coefficient),BKαβ1 [2]; presence of 10 μm pimaric acid,0.982±0.161
